# Data from US7763596B2, “Selective glucocorticoid receptor agonists” (The University of Manchester, priority 2000, dated 2010).
# How the values were obtained:
# Assay type in all cases: cell-based
# [1] = target: T1, GR ligand binding domain / SRC-1 (Homo sapiens, UniProt P04150); test: SRC-1 association assay by mammalian two-hybrid analysis; conditions: for SRC-1 recruitment at the highest concentration tested: 100 nM
# T1 construct: expressed in transfected cells
# T1 sequence (P04150 524-758 limits assumed): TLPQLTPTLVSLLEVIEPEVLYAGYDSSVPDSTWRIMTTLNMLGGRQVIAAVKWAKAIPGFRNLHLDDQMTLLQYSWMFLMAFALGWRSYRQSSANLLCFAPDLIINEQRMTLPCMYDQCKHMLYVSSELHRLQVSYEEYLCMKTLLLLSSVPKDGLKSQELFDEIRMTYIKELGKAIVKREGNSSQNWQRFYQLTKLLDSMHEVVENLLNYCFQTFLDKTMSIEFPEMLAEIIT
# Text: SRC-1 is an important co-activator of GR action that associates with the GR in a ligand dependant manner. The ability of SRC-1 to associate with the GR in this manner can be used as a measure of potency of ligand mediated transactivation. To perform this assay plasmids that generated VP16-GR ligand binding domain (LBD) and GAL4-SRC-1 fusion proteins and a GAL4 binding luciferase reporter gene construct were transfected into in a cell line lacking GR and deficient in endogenous SRC-1. The GAL4-SRC-1 fusion protein could bind to specific sites upstream of the luciferase reporter gene construct. If the SRC-1 fusion protein associated with the ligand bound VP16-GRLBD fusion protein then the VP-16 activation domain augmented the luciferase gene expression.
# endogenous GR = target: T2, endogenous GR (Homo sapiens, UniProt P04150); test: Transrepression assay using endogenous GR in the A549 lung epithelial cell line (TNF, NRE luciferase); conditions: compound G at 1, 10, 100 and 500 nM
# T2 construct: This cell line contains functional endogenous GR; endogenous in cells; host or cells: A549
# T2 sequence (P04150 1-777): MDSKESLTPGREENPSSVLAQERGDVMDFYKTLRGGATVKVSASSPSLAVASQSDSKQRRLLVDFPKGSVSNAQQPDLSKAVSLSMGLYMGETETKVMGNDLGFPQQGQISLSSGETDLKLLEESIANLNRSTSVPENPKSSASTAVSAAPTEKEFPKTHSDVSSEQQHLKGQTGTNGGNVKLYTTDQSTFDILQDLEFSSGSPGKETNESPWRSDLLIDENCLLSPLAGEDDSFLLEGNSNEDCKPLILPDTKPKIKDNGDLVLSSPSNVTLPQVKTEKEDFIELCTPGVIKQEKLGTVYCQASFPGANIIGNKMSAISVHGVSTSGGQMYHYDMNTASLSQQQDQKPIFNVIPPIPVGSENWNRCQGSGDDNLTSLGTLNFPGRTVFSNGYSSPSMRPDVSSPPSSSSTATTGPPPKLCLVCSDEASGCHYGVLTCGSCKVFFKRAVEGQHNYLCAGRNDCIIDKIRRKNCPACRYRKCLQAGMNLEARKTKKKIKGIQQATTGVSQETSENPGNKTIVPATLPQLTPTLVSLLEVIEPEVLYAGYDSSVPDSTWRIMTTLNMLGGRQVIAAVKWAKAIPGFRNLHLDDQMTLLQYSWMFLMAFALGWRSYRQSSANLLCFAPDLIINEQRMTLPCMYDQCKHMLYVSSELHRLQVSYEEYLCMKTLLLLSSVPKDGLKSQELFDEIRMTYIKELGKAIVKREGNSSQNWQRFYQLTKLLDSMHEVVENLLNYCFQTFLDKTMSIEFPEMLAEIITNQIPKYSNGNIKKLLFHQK
# Text: The A549 cell line (ECACC:86012804) is derived from the human lung epithelial cells from a carcinoma. This cell line contains functional endogenous GR and is stimulated by Tumour Necrosis Factor (TNF) to produce IL-8.
# In this assay TNF was used to stimulate NFkB activity in a cell line that expressed endogenous GR. The ability of NFkB to activate an NRE “driving” a luciferase reporter gene could then be repressed by GR in a ligand dependent manner and, therefore, used to measure transrepression.
# COS7 cells were transfected with 3 μg NRE-Luc per 10 cm tissue culture dish. The cells were plated out in to 24 well plates after transfection and left for 18 hours to recover before the steroids of FIGS. 1 and 2 were added. Next TNF was added to the samples after 3 hours incubation with the steroids and after another 15 hours the cells were lysed and a luciferase assay was performed.
# [2] = target: T3, progesterone receptor (PRB) (Homo sapiens, UniProt P06401); test: Progestogen activity assay using progesterone receptor transactivation; conditions: 100 nM; for PRB reporter gene activation: AH3-luc reporter, COS7
# T3 construct: expressed in transfected cells; host or cells: COS 7
# T3 sequence (P06401 1-933): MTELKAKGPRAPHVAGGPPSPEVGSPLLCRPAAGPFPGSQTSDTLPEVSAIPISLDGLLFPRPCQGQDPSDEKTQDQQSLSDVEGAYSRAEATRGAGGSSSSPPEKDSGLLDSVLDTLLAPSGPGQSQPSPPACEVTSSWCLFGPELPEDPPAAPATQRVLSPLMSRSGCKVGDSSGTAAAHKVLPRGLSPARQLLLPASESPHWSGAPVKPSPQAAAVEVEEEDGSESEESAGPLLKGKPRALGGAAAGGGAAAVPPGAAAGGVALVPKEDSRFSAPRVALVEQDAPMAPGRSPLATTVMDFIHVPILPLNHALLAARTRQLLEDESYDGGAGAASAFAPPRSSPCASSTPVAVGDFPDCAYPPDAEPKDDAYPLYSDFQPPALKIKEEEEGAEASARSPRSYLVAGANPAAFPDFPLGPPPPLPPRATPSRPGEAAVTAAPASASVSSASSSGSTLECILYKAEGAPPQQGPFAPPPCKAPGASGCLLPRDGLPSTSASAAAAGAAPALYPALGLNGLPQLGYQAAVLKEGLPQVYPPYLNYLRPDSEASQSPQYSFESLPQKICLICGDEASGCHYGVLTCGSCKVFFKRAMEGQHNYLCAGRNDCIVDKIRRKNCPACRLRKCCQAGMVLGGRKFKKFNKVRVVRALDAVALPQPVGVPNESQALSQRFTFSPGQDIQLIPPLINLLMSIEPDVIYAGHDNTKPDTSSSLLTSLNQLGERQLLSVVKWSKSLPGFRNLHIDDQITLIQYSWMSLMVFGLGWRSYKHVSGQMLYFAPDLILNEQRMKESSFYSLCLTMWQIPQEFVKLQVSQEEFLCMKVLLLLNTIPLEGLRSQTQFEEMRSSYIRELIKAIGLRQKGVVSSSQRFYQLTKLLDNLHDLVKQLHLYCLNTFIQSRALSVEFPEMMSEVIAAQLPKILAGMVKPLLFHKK
# Text: As the GR LBD has strong homology with the PR LBD there is a chance that any of the tested steroids of FIGS. 1 and 2A that activate one of these receptors may also activate the other. The presence of illegitimate progestogen activity associated with the steroids of FIGS. 1 and 2A was examined using a transactivation assay with the PR instead of the GR.
# The PR was artificially expressed in a cell line lacking endogenous PR and a GRE “driving” a luciferase reporter gene was used to measure ligand dependent activation.
# COS7 cells were transfected with 1 μg pSEO-PRB and 3 μg AH3-Luc per 10 cm tissue culture dish. The cells were plated out in to 24 well plates after transfection and the steroids of FIGS. 1 and 2A were added immediately to generate a final concentration of 100 nM. After 18 hour incubation the cells were lysed and a luciferase assay was performed.
Structure (SMILES),repression of TNF activation of A549 cells (NRE reporter gene) (endogenous GR),SRC-1 recruitment at the highest concentration tested [1],PRB reporter gene activation [2],also measured
CC1CC2C3CCC4=CC(=O)C=CC4(C)C3(F)C(O)CC2(C)C12OC(C)(C)OCC2=O (stereo not drawn) [Compound A],exhibited transrepression,–,–,"SRC-1 recruitment, sub-maximal response ([1]; 1, 10 and 100 nM, relative to dexamethasone): ~50%"
CCCNC(=O)C1(O)C(C)CC2C3CCC4=CC(=O)C=CC4(C)C3(F)C(O)CC21C (stereo not drawn) [Compound G],repressed at least as well as dexamethasone and also had a “left shifted” response with greater maximal repression,no SRC-1 recruitment,–,transactivation as measured by SRC-1 recruitment ([1]; 1 and 10 nmolar): no transactivation as measured by SRC-1 recruitment
Cc1ccc(NC(=O)C2(O)C(C)CC3C4CCC5=CC(=O)C=CC5(C)C4(F)C(O)CC32C)cc1 (stereo not drawn) [Compound O],–,–,slightly increased reporter gene activation compared to that of dexamethasone,–
CC1CC2C3CCC4=CC(=O)C=CC4(C)C3(F)C(O)CC2(C)C1(O)C(=O)NCCCO (stereo not drawn) [L],–,–,slightly increased reporter gene activation compared to that of dexamethasone,PRB activation relative to the activation generated by progesterone [2]: ~40%
CC1CC2C3CCC4=CC(=O)C=CC4(C)C3(F)C(O)CC2(C)C1(O)C(=O)NCCC(=O)O (stereo not drawn) [Q],–,–,slightly increased reporter gene activation compared to that of dexamethasone,–

# The next lines start with results.
repression of TNF activation of A549 cells (NRE reporter gene) (endogenous GR),SRC-1 recruitment at the highest concentration tested [1],Structure (SMILES),PRB reporter gene activation [2],also measured
exhibited transrepression,–,CC1CC2C3CCC4=CC(=O)C=CC4(C)C3(F)C(O)CC2(C)C1(O)C(=O)COC(=O)c1ccc(F)cc1 (stereo not drawn) [Compound D],–,"SRC-1 recruitment compared with dexamethasone ([1]; 1, 10 and 100 nM): recruited SRC-1 to the same extent as dexamethasone"
–,significant response,CCCCCCNC(=O)OCC(=O)C1(O)C(C)CC2C3CCC4=CC(=O)C=CC4(C)C3(F)C(O)CC21C (stereo not drawn) [Compound T],slightly increased reporter gene activation compared to that of dexamethasone,–
–,significant response,CCCOC(=O)C1(O)C(C)CC2C3CCC4=CC(=O)C=CC4(C)C3(F)C(O)CC21C (stereo not drawn) [R],slightly increased reporter gene activation compared to that of dexamethasone,–
